From patent US20250368686A1, “PEPTIDE DRUGS FOR S[…] D[…] BLOCKING HOMO- AND HETERO-DIMERIZATION OF OPIOID RECEPTORS” (OKINAWA INSTITUTE OF SCIENCE AND TECHNOLOGY SCHOOL …, priority 2022, published 2025)
Where a name gives a salt, the structure may show the parent alone. Read-outs that look alike come from different tables or passages of the source. Where no end group is shown, it is not given here.

Experiments:
[1] = target: T1, DOR and MOR (DM) heterodimers (Rattus norvegicus, UniProt P33535); assay: DM heterodimerisation, two-colour single-molecule imaging in CHO-K1 cells (colocalisation index, heterodimer lifetime); type: cell-based; settings: for DM colocalisation, competition by expressed SNAPf-tagged TM peptides: CHO-K1 cells expressing DOR-mGFP, MOR-Halo and the TM peptide
T1 construct: expressed in transfected cells; host or cells: CHO-K1 cells stably co-expressing DOR and MOR
T1 sequence (P33535 whole entry, one chain of several): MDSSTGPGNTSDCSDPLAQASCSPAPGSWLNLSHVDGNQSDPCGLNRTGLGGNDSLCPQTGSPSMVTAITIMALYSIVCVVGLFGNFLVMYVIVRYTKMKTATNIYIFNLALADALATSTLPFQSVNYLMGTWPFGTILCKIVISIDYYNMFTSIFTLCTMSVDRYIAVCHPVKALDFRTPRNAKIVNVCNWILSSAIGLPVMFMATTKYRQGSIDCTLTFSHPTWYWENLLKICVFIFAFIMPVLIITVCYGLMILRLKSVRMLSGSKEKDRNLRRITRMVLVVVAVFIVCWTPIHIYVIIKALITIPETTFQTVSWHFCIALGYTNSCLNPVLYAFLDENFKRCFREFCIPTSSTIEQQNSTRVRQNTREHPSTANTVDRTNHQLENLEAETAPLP

hippocampal neurons = assay: LDH cytotoxicity assay in primary culture of hippocampal neurons; type: cell-based; settings: hippocampal neurons DIV8, DIV12, DIV14; 48, 96 and 144-hour exposures, 100 μM
Procedure: (§1) Cytotoxicity was measured by subtracting LDH content in remaining viable cells from total LDH in untreated controls.
Treatments of neurons with Trition-100 (1%) and DMSO (10%) for 48 h were used as positive controls.

T24 cells = assay: LDH cytotoxicity assay in T24 cells; type: cell-based, human; settings: 48-h exposure, 50, 100 and 200 μM
Procedure: as §1

MOR [2] = target: T2, MOR (Rattus norvegicus, UniProt P33535); type: cell-based; set-up: expressed in transfected cells; host or cells: CHO-K1 (A10, A13); T24 (A16); CHO-K1 stably expressing Gqi5 (A19); settings: CHO-K1 cells, addition alone
T2 sequence (P33535 whole entry): as the sequence (P33535 whole entry, one chain of several) above

MOR [3] = target: T2, MOR; type: cell-based; set-up: fluorescent tag protein (not specified for this assay); expressed in transfected cells; host or cells: CHO-K1 (M cells, MD cells); for Ca2+ mobilisation CHO-K1 stably expressing Gqi5; settings: 0.5 μM agonist; for MOR internalisation: 60-min observations
MOR [4] = target: T2, MOR; type: cell-based; set-up: expressed in transfected cells; host or cells: CHO-K1 (A10, A13); T24 (A16); CHO-K1 stably expressing Gqi5 (A19); settings: T24 cells, addition alone
MOR [5] = type: cell-based, rat; settings: D- and K-cells
MOR [6] = target: T2, MOR; type: cell-based; set-up: fluorescent tag protein (not specified for this assay); expressed in transfected cells; host or cells: CHO-K1 (M cells, MD cells); for Ca2+ mobilisation CHO-K1 stably expressing Gqi5
DOR [7] = target: T3, DOR (Rattus norvegicus, UniProt P33533); type: cell-based; set-up: fluorescent tag protein (not specified for this assay); expressed in transfected cells; host or cells: CHO-K1 (D cells, MD cells); settings: for DOR internalisation, effect of agonist: 0.5 μM agonist, D cells and MD cells
T3 sequence (P33533 whole entry): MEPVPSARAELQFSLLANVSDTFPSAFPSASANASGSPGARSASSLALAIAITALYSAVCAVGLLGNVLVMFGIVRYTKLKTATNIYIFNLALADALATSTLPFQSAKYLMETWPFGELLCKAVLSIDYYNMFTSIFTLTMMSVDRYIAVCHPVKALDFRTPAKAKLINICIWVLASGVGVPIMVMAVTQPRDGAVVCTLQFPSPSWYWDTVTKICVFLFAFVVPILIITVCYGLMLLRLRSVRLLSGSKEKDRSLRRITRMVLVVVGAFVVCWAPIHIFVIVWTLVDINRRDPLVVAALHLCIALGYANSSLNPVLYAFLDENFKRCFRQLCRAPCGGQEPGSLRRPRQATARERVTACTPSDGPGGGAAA

DOR [8] = target: T3, DOR; type: cell-based; set-up: expressed in transfected cells; host or cells: CHO-K1 (A11, A14); T24 (A17); CHO-K1 stably expressing Gqi5 (A20); settings: CHO-K1 cells, addition alone
DOR [9] = target: T3, DOR; type: cell-based; set-up: expressed in transfected cells; host or cells: CHO-K1 (A11, A14); T24 (A17); CHO-K1 stably expressing Gqi5 (A20); settings: T24 cells, addition alone

Compound: MOR's N-term+TM1: aa53-99 sequence of MOR conjugated with the SNAPf tag, expressed in cells (NDSLCPQTGSPSMVTAITIMALYSIVCVVGLFGNFLVMYVIVRYTKM; cysteine pairing not given here; also: conjugated with SNAPf tag)
- DM colocalisation, competition by expressed SNAPf-tagged TM peptides [1]: competes with DM dimers more effectively

Compound: SDTFPSAFPSASANASGSPGARS [Dpep(20-42)DM]
- cytotoxicity (LDH) (hippocampal neurons): little toxicity
- cytotoxicity (LDH) (T24 cells): no toxicity

Compound: C[C@@H](NC(=O)[C@@H](N)Cc1ccc(O)cc1)C(=O)NCC(=O)N(C)[C@@H](Cc1ccccc1)C(=O)NCCO [DAMGO, [D-Ala^2, N-Mc-Phet, Gly^5-ol]-enkephalin acetate salt]
- Fraction of internalized molecules (MOR [2]): 28.1 ± 1.7 %
- Residency time of internalized molecules (MOR [2]): 11.3 ± 1.9 min
- MOR internalisation (MOR [3]; M cells): 31.8%
- MOR internalisation (MOR [3]; MD cells): 51.1%
- Fraction of internalized molecules (MOR [4]): 26.3 ± 1.1 %
- Residency time of internalized molecules (MOR [4]): 6.5 ± 1.2 min
- intracellular Ca2+ mobilisation (MOR [5]): not
- DM heterodimer lifetime, effect of agonist ([1]; 0.5 μM agonist, within 5 min after addition): prolonged
- DM colocalisation index, effect of agonist ([1]; 0.5 μM agonist, within 5 min after addition, agonist-bound MOR with DOR): higher
- intracellular Ca2+ mobilisation (MOR [6]; M-cells): induced
- intracellular Ca2+ mobilisation (MOR [6]; MD-cells, compared with M-cells): greatly enhanced
- DOR internalisation (DOR [7]; MD cells, 0.5 μM MOR agonist, 4.3% without DAMGO addition): 13.3%

Compound: LSHVDGNQSDPCGLNRTGLGGNDSLCPQTG [Mpep(32-61)MD]
- DM colocalisation index ([1]; soluble peptides, 10 μM final, added to cells stably co-expressing WT-DOR and MOR): largest reductions

Compound: MOR's TM1: MOR's TM1 (aa71-94) conjugated with the SNAPf tag, expressed in cells (IMALYSIVCVVGLFGNFLVMYVIV; also: conjugated with SNAPf tag)
- DM colocalisation, competition by expressed SNAPf-tagged TM peptides [1]: lowered the DM colocalisation

Compound: C=CCN1C[C@H](C)N([C@H](c2ccc(C(=O)N(CC)CC)cc2)c2cccc(OC)c2)C[C@H]1C [SNC-80]
- MOR internalisation, effect of agonist (MOR [3]; M cells and MD cells): induced
- Fraction of internalized molecules (DOR [8]): 61.6 ± 1.7 %
- Residency time of internalized molecules (DOR [8]): 10.8 ± 0.9 min
- Fraction of internalized molecules (DOR [9]): 56.5 ± 1.9 %
- Residency time of internalized molecules (DOR [9]): 8.9 ± 1.0 min
- DOR internalisation, effect of agonist (DOR [7]): induced dramatic DOR internalisation

Compound: CN1CC[C@]23c4c5ccc(O)c4O[C@H]2[C@@H](O)C=C[C@H]3[C@H]1C5 [morphine]
- DOR internalisation, effect of agonist (DOR [7]): hardly affected
